# Source: patent US20230413819A1, “METHODS FOR CONTROLLING FLEA AND TICK INFESTATIONS IN A MAMMAL” (In the Bowl Animal Health, Inc., priority 2021, published 2023)
# “And” between values parts separate entries of the source, which are not always exact repeats. Identical values can stand only once. Like-named read-outs stand apart in the source and are kept apart here.
# Tests used:
# [1] = Plasma concentration of mivorilaner, 0.75 mg/kg daily oral (Examples 4 and 10); assay type: in vivo, dogs; conditions: dog, 0.75 mg/kg/day
# [2] = as above; assay type: in vivo, dogs
# Description: (§1) Each dog in the treatment group is to receive by mouth a liquid formulation of isoxazoline. The dosage of 0.75 mg/kg is to be administered to the dogs on each of days 0-29.
# Dogs in the control group are not to receive isoxazoline or any other tick control treatment. Each dog in the treatment group is to be offered its daily ration (dry food) and the individual doses of liquid formulation are to be administered after the individual dog has eaten at least 25% of its total daily ration. After receiving the dose of isoxazoline, the dogs are to be allowed to continue eating. This mimics incorporating the isoxazoline in feed. Each dog in the treatment group and the control group is to be experimentally infested with 50 adult ticks on test days 5, 12, 19, 28 and 35. Comb counts for live and moribund attached ticks are to be conducted on days 7, 14, 21, 30 and 37.
# (§2) Dogs in the control group are not to receive isoxazoline or any other flea control treatment. Each dog in the treatment group is to be offered its daily ration (dry food) and the individual doses of liquid formulation are to be administered after the individual dog has eaten at least 25% of its total daily ration. After receiving the dose of isoxazoline, the dogs are to be allowed to continue eating. This mimics incorporating the isoxazoline in feed. Each dog in the treatment group and the control group is to be experimentally infested with 100 unfed adult fleas on test days 2, 5, 12, 20 and 35. Comb counts for live adult fleas are to be conducted on days 4, 7, 14, 21 and 37.
# Ctenocephalides felis = experiment: Efficacy of isoxazoline (mivorilaner) per os to dogs against Ctenocephalides felis (Example 10); assay type: in vivo; conditions: 0.75 mg/kg/day oral
# Excerpt: Methods: A pool of 14 dogs are to be preliminarily infested with ˜100 unfed adult C. felis in order to identify dogs that can suitably sustain a reliable infestation rate, defined as approximately 50% fleas being live at the end of a 48-hour period. The 12 dogs with the highest live flea counts are to be selected for inclusion in the study. The dogs are to be divided into a control group and a treatment group.
# The dogs are to be housed individually during the study period and are to be fed a commercial dry dog food ration with ad libitum access to water.
# as §1
# as §2, with “Each dog in the treatment group and the control group is to be experimentally infested with 100 unfed adult fleas on test days 2, 5, 12, 20 and 35. Comb counts for live adult fleas are to be conducted on days 4, 7, 14, 21 and 37.” left out
# Results: referring now to FIG. 16, the arithmetic mean efficacy in reduction of live adult flea counts is shown. The Percent Efficacy is calculated according to the formula: […]
# [3] = Average plasma concentration of mivorilaner, medicated daily feed (Example 9); assay type: in vivo, dogs
# Description: Each dog in a treatment group (test groups 2-4) is to receive a medicated daily feed from study days 0-49. The medicated daily feed is to be offered to the dogs for 1 hour on each of days 0-49 according to test groups listed in TABLE 11.
smiles,measurement,setting,value
"O=C(CNC(=O)c1sc(C2=NO[C@@](c3cc(Cl)c(F)c(Cl)c3)(C(F)(F)F)C2)c2c1CCC2)NCC(F)F [mivorilaner, 3-[(5S)-5-(3,5-dichloro-4-fluorophenyl)-5-(trifluoromethyl)-4,5-dihydroisoxazol-3-yl]-N-[2-[(2,2-difluoroethyl)amino]-2-oxoethyl]-5,6-dihydro-4H-cyclopenta[c]thiophene-1-carboxamide]",concentration at 3 day,"[1]; 0.75 mg/kg/day oral days 0-29, Day 3, read-out: Mivorilaner Concentration, Average of 6 canines",674 ng/mL
same,concentration at 3 day,"[1]; 0.75 mg/kg/day oral days 0-29, Day 3, read-out: Mivorilaner Concentration, individual canines",648 ng/mL
same,concentration at 7 day,"[1]; 0.75 mg/kg/day oral days 0-29, Day 7, read-out: Mivorilaner Concentration, Average of 6 canines",1450 ng/mL
same,concentration at 7 day,"[1]; 0.75 mg/kg/day oral days 0-29, Day 7, read-out: Mivorilaner Concentration, individual canines",1620 ng/mL
same,concentration at 14 day,"[1]; 0.75 mg/kg/day oral days 0-29, Day 14, read-out: Mivorilaner Concentration, Average of 6 canines",2100 ng/mL
same,concentration at 14 day,"[1]; 0.75 mg/kg/day oral days 0-29, Day 14, read-out: Mivorilaner Concentration, individual canines",2530 ng/mL
same,concentration at 21 day,"[1]; 0.75 mg/kg/day oral days 0-29, Day 21, read-out: Mivorilaner Concentration, Average of 6 canines",2720 ng/mL
same,concentration at 21 day,"[1]; 0.75 mg/kg/day oral days 0-29, Day 21, read-out: Mivorilaner Concentration, individual canines",2820 ng/mL
same,concentration at 30 day,"[1]; 0.75 mg/kg/day oral days 0-29, Day 30, read-out: Mivorilaner Concentration, Average of 6 canines",2630 ng/mL
same,concentration at 37 day,"[1]; 0.75 mg/kg/day oral days 0-29, Day 37, read-out: Mivorilaner Concentration, Average of 6 canines",2020 ng/mL
same,concentration at 37 day,"[1]; 0.75 mg/kg/day oral days 0-29, Day 37, read-out: Mivorilaner Concentration, individual canines",2410 ng/mL
same,"Mivorilaner Concentration, individual canines","[2]; 0.75 mg/kg/day oral days 0-29, Day 3, 0.75 mg/kg/day",579 ng/mL and 660 ng/mL and 800 ng/mL and 798 ng/mL and 556 ng/mL and 648 ng/mL
same,"Mivorilaner Concentration, individual canines","[2]; 0.75 mg/kg/day oral days 0-29, Day 7, 0.75 mg/kg/day",994 ng/mL and 1470 ng/mL and 1620 ng/mL and 1660 ng/mL and 1330 ng/mL
same,"Mivorilaner Concentration, individual canines","[2]; 0.75 mg/kg/day oral days 0-29, Day 14, 0.75 mg/kg/day",1560 ng/mL and 2120 ng/mL and 2370 ng/mL and 2060 ng/mL and 1990 ng/mL and 2530 ng/mL
same,"Mivorilaner Concentration, individual canines","[2]; 0.75 mg/kg/day oral days 0-29, Day 21, 0.75 mg/kg/day",2450 ng/mL and 2720 ng/mL and 2950 ng/mL and 2660 ng/mL and 2750 ng/mL and 2820 ng/mL
same,"Mivorilaner Concentration, individual canines","[2]; 0.75 mg/kg/day oral days 0-29, Day 30, 0.75 mg/kg/day",2320 ng/mL and 2600 ng/mL and 2790 ng/mL and 2570 ng/mL and 2890 ng/mL
same,"Mivorilaner Concentration, individual canines","[2]; 0.75 mg/kg/day oral days 0-29, Day 37, 0.75 mg/kg/day",1880 ng/mL and 2010 ng/mL and 1980 ng/mL and 1750 ng/mL and 2070 ng/mL and 2410 ng/mL
same,"Mivorilaner Concentration, individual canines","[2]; 0.75 mg/kg/day oral days 0-29, Day −1 (before first dose)",BLQ
same,concentration at 30 day,"[2]; dog, po, 0.75 mg/kg/day, 0.75 mg/kg/day oral days 0-29, Day 30, read-out: Mivorilaner Concentration, individual canines",2890 ng/mL
same,day after initial administration by which the treatment is effective (reduction of live adult flea counts),Ctenocephalides felis,≤ 4 days
same,average plasma concentration of isoxazoline (mivorilaner),"[3]; Group 2, 106 mg/kg feed (anticipated 1 mg/kg daily), 1 hr",49.98
same,average plasma concentration of isoxazoline (mivorilaner),"[3]; Group 2, 106 mg/kg feed (anticipated 1 mg/kg daily), 3 hr",292.00
same,average plasma concentration of isoxazoline (mivorilaner),"[3]; Group 2, 106 mg/kg feed (anticipated 1 mg/kg daily), 6 hr",539.00
same,average plasma concentration of isoxazoline (mivorilaner),"[3]; Group 2, 106 mg/kg feed (anticipated 1 mg/kg daily), 10 hr",505.40
same,average plasma concentration of isoxazoline (mivorilaner),"[3]; Group 2, 106 mg/kg feed (anticipated 1 mg/kg daily), 24 hr",458.60
same,average plasma concentration of isoxazoline (mivorilaner),"[3]; Group 2, 106 mg/kg feed (anticipated 1 mg/kg daily), 48 hr",771.83
same,average plasma concentration of isoxazoline (mivorilaner),"[3]; Group 2, 106 mg/kg feed (anticipated 1 mg/kg daily), 96 hr",1570.50
same,average plasma concentration of isoxazoline (mivorilaner),"[3]; Group 2, 106 mg/kg feed (anticipated 1 mg/kg daily), 168 hr",2156.67
same,average plasma concentration of isoxazoline (mivorilaner),"[3]; Group 2, 106 mg/kg feed (anticipated 1 mg/kg daily), 240 hr",3003.33
same,average plasma concentration of isoxazoline (mivorilaner),"[3]; Group 2, 106 mg/kg feed (anticipated 1 mg/kg daily), 336 hr",3290.00
same,average plasma concentration of isoxazoline (mivorilaner),"[3]; Group 3, 106 mg/kg feed (anticipated 1 mg/kg daily), 1 hr",40.41
same,average plasma concentration of isoxazoline (mivorilaner),"[3]; Group 3, 106 mg/kg feed (anticipated 1 mg/kg daily), 3 hr",264.83
same,average plasma concentration of isoxazoline (mivorilaner),"[3]; Group 3, 106 mg/kg feed (anticipated 1 mg/kg daily), 6 hr",467.50
same,average plasma concentration of isoxazoline (mivorilaner),"[3]; Group 3, 106 mg/kg feed (anticipated 1 mg/kg daily), 10 hr",419.17
same,average plasma concentration of isoxazoline (mivorilaner),"[3]; Group 3, 106 mg/kg feed (anticipated 1 mg/kg daily), 24 hr",435.17
same,average plasma concentration of isoxazoline (mivorilaner),"[3]; Group 3, 106 mg/kg feed (anticipated 1 mg/kg daily), 48 hr",781.83
same,average plasma concentration of isoxazoline (mivorilaner),"[3]; Group 3, 106 mg/kg feed (anticipated 1 mg/kg daily), 96 hr",1596.67
same,average plasma concentration of isoxazoline (mivorilaner),"[3]; Group 3, 106 mg/kg feed (anticipated 1 mg/kg daily), 168 hr",2406.67
same,average plasma concentration of isoxazoline (mivorilaner),"[3]; Group 3, 106 mg/kg feed (anticipated 1 mg/kg daily), 240 hr",3026.67
same,average plasma concentration of isoxazoline (mivorilaner),"[3]; Group 3, 106 mg/kg feed (anticipated 1 mg/kg daily), 336 hr",3516.67
same,average plasma concentration of isoxazoline (mivorilaner),"[3]; Group 4, 318 mg/kg feed (anticipated 3 mg/kg daily), 1 hr",143.75
same,average plasma concentration of isoxazoline (mivorilaner),"[3]; Group 4, 318 mg/kg feed (anticipated 3 mg/kg daily), 3 hr",846.50
same,average plasma concentration of isoxazoline (mivorilaner),"[3]; Group 4, 318 mg/kg feed (anticipated 3 mg/kg daily), 6 hr",1265.67
same,average plasma concentration of isoxazoline (mivorilaner),"[3]; Group 4, 318 mg/kg feed (anticipated 3 mg/kg daily), 10 hr",1198.17
same,average plasma concentration of isoxazoline (mivorilaner),"[3]; Group 4, 318 mg/kg feed (anticipated 3 mg/kg daily), 24 hr",1021.17
same,average plasma concentration of isoxazoline (mivorilaner),"[3]; Group 4, 318 mg/kg feed (anticipated 3 mg/kg daily), 48 hr",2011.67
same,average plasma concentration of isoxazoline (mivorilaner),"[3]; Group 4, 318 mg/kg feed (anticipated 3 mg/kg daily), 96 hr",3928.33
